PubChem BioAssay (NCI)
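1) Cells in 96-well plates. 2) Compound, 48 h, 5 concentrations. 3) Linear interpolation between surrounding doses. 4) Unreached endpoint = highest concentration. TGI: total growth inhibition.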

Assays:
Assay in all cases: NCI anticancer screen, dose series, 48 h
SNB-19 CNS = system: SNB-19 CNS
MDA-N = system: MDA-N
CAKI-1 renal = system: CAKI-1 renal
ACHN renal = system: ACHN renal
MOLT-4 leukemia = system: MOLT-4 leukemia
CCRF-CEM leukemia = system: CCRF-CEM leukemia
UO-31 renal = system: UO-31 renal
NCI-H522 lung = system: NCI-H522 lung
A549 NSCLC = system: A549 NSCLC
786-0 renal = system: 786-0 renal
UACC-257 melanoma = system: UACC-257 melanoma
M14 melanoma = system: M14 melanoma
MALME-3M melanoma = system: MALME-3M melanoma
K-562 leukemia = system: K-562 leukemia
RXF 393 renal = system: RXF 393 renal
SNB-75 CNS = system: SNB-75 CNS
MDA-MB-231 breast = system: MDA-MB-231 breast
SF-268 CNS = system: SF-268 CNS
A498 renal = system: A498 renal
HS 578T breast = system: HS 578T breast
SK-MEL-2 melanoma = system: SK-MEL-2 melanoma
IGROV1 ovarian = system: IGROV1 ovarian
LOX IMVI melanoma = system: LOX IMVI melanoma
SK-MEL-5 melanoma = system: SK-MEL-5 melanoma
MCF7 breast = system: MCF7 breast
SF-295 CNS = system: SF-295 CNS
HOP-92 NSCLC = system: HOP-92 NSCLC
PC-3 prostate = system: PC-3 prostate
SK-MEL-28 melanoma = system: SK-MEL-28 melanoma
OVCAR-4 ovarian = system: OVCAR-4 ovarian
DU-145 prostate = system: DU-145 prostate
HCT-116 colon = system: HCT-116 colon
COLO 205 colon = system: COLO 205 colon
SF-539 CNS = system: SF-539 CNS
UACC-62 melanoma = system: UACC-62 melanoma
OVCAR-8 ovarian = system: OVCAR-8 ovarian
U251 CNS = system: U251 CNS
HCT-15 colon = system: HCT-15 colon
SK-OV-3 ovarian = system: SK-OV-3 ovarian
NCI/ADR-RES ovarian = system: NCI/ADR-RES ovarian
NCI-H226 lung = system: NCI-H226 lung
NCI-H23 lung = system: NCI-H23 lung
HCC-2998 colon = system: HCC-2998 colon
EKVX NSCLC = system: EKVX NSCLC
SR leukemia = system: SR leukemia
TK-10 renal = system: TK-10 renal
HT29 colon = system: HT29 colon
SW-620 colon = system: SW-620 colon
HL-60(TB) leukemia = system: HL-60(TB) leukemia
RPMI-8226 leukemia = system: RPMI-8226 leukemia
OVCAR-5 ovarian = system: OVCAR-5 ovarian
NCI-H460 lung = system: NCI-H460 lung
HOP-62 NSCLC = system: HOP-62 NSCLC
BT-549 breast = system: BT-549 breast
SN12C renal = system: SN12C renal
T-47D breast = system: T-47D breast
MDA-MB-435 = system: MDA-MB-435
KM12 colon = system: KM12 colon
OVCAR-3 ovarian = system: OVCAR-3 ovarian

## C=C1CCC(O)C/C1=C/C=C1\CCCC2(C)C1CCC2C(C)CCCC(C)C (centres undefined)
SNB-19 CNS
  TGI: 33.2 µM
MDA-N
  TGI: 34.3 µM
CAKI-1 renal
  TGI: 35.2 µM
ACHN renal
  TGI: 30.6 µM
MOLT-4 leukemia
  TGI: > 61.5 µM
CCRF-CEM leukemia
  TGI: > 65.4 µM
UO-31 renal
  TGI: 28.3 µM
NCI-H522 lung
  TGI: 33 µM
A549 NSCLC
  TGI: 36.3 µM
786-0 renal
  TGI: 30.6 µM
UACC-257 melanoma
  TGI: 32.2 µM
M14 melanoma
  TGI: 34.8 µM
MALME-3M melanoma
  TGI: 38 µM
K-562 leukemia
  TGI: > 59.2 µM
RXF 393 renal
  TGI: 33.4 µM
SNB-75 CNS
  TGI: 37.6 µM
MDA-MB-231 breast
  TGI: 35.6 µM
SF-268 CNS
  TGI: 46.5 µM
A498 renal
  TGI: 36.7 µM
HS 578T breast
  TGI: 36.4 µM
SK-MEL-2 melanoma
  TGI: 37.2 µM
IGROV1 ovarian
  TGI: 31.3 µM
LOX IMVI melanoma
  TGI: 34.5 µM
SK-MEL-5 melanoma
  TGI: 36.3 µM
MCF7 breast
  TGI: 29.3 µM
SF-295 CNS
  TGI: 35.1 µM
HOP-92 NSCLC
  TGI: 33 µM
PC-3 prostate
  TGI: 34.3 µM
SK-MEL-28 melanoma
  TGI: 30.4 µM
OVCAR-4 ovarian
  TGI: 35.7 µM
DU-145 prostate
  TGI: 41.3 µM
HCT-116 colon
  TGI: 28.5 µM
COLO 205 colon
  TGI: 34 µM
SF-539 CNS
  TGI: 36.5 µM
UACC-62 melanoma
  TGI: 34.9 µM
OVCAR-8 ovarian
  TGI: 33.2 µM
U251 CNS
  TGI: 34.4 µM
HCT-15 colon
  TGI: 35.3 µM
SK-OV-3 ovarian
  TGI: 41.9 µM
NCI/ADR-RES ovarian
  TGI: 34.9 µM
NCI-H226 lung
  TGI: 31.3 µM
NCI-H23 lung
  TGI: 33.7 µM
HCC-2998 colon
  TGI: 38.6 µM
EKVX NSCLC
  TGI: 35.4 µM
SR leukemia
  TGI: > 63.6 µM
TK-10 renal
  TGI: 25.1 µM
HT29 colon
  TGI: 29.9 µM
SW-620 colon
  TGI: 31.8 µM
HL-60(TB) leukemia
  TGI: > 60.2 µM
RPMI-8226 leukemia
  TGI: 64.9 µM
OVCAR-5 ovarian
  TGI: 37.4 µM
NCI-H460 lung
  TGI: 46.7 µM
HOP-62 NSCLC
  TGI: 35.4 µM
BT-549 breast
  TGI: 37.4 µM
SN12C renal
  TGI: 30.8 µM
T-47D breast
  TGI: 38.8 µM
MDA-MB-435
  TGI: 31.3 µM
KM12 colon
  TGI: 38 µM
OVCAR-3 ovarian
  TGI: 35.4 µM
